Test results: US20060004088A1, “Furan derivatives for preventing and curing osteoporosis and pharmaceutical compositions containing the same” (OCT INC., priority 2002, published 2006)

Tested on: osteoclast pregenitor cells
Experiment: Inhibition rates of furan derivatives versus osteoclast formation (TRAP staining)
Type: cell-based, mice
Settings: TRAP-positive multinucleated cells, untreated control set as 100%
Summary of the method: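 Non-adherent mouse bone-marrow osteoclast precursors cultured 8 days with 20 ng/ml M-CSF and 30 ng/ml RANKL in presence of compound. TRAP-positive cells with ≥3 nuclei counted; inhibition expressed relative to untreated control set at 100%.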

Row | SMILES | Inhibition rate against osteoclast formation, % (0.1 μM) | Inhibition rate against osteoclast formation, % (1 μM) | Inhibition rate against osteoclast formation, % (10 μM)
1 | Cc1cc(OCc2ccc(C(=O)Nc3ccc(Cl)cc3)o2)ccc1Cl [Compound 173] | 0% | 0% | 8.03%
2 | COc1ccccc1OCc1ccc(C(=O)Nc2ccccc2Cl)o1 [Compound 174] | 0% | 0% | 14.11%
3 | COc1ccccc1OCc1ccc(C(=O)Nc2ccc(C)c(C)c2)o1 [Compound 175] | 0% | 0% | 33.33%
4 | CCCc1ccc(OCc2ccc(C(=O)Nc3ccc(F)cc3F)o2)c(OC)c1 [Compound 176] | 0% | 0% | 15.56%
5 | Cc1cc(C)cc(OCc2ccc(C(=O)Nc3ccccc3F)o2)c1 [Compound 177] | 0% | 0% | 11.03%
6 | O=C(Nc1ccccc1F)c1ccc(COc2ccc(Cl)cc2)o1 [Compound 178] | 0% | 0% | 14.09%
7 | Cc1cccc(C)c1NC(=O)c1ccc(COc2ccc(Cl)cc2)o1 [Compound 179] | 0% | 0% | 34.81%
8 | COC(=O)c1ccccc1NC(=O)c1ccc(COc2ccc(C)c(C)c2)o1 [Compound 180] | 0% | 0% | 8.15%
9 | O=C(Nc1cc(C(F)(F)F)ccc1Cl)c1ccc(COc2ccc(Cl)cc2)o1 [Compound 181] | 0% | 0% | 56.96%
10 | COc1cc([N+](=O)[O-])ccc1NC(=O)c1ccc(COc2ccc(Cl)cc2)o1 [Compound 182] | 0% | 0% | 4.34%
11 | O=C(Nc1ccccc1[N+](=O)[O-])c1ccc(COc2ccccc2Cl)o1 [Compound 183] | 0% | 0% | 57.39%
12 | O=C(Nc1ccc(F)cc1F)c1ccc(COc2c(F)c(F)cc(F)c2F)o1 [Compound 185] | 0% | 0% | 13.64%
13 | Cc1ccc(OCc2ccc(C(=O)Nc3ccc(F)c(F)c3)o2)cc1C [Compound 186] | 0% | 0% | 21.09%
14 | CC(=O)Nc1cccc(NC(=O)c2ccc(COc3c(F)c(F)c(F)c(F)c3F)o2)c1 [Compound 187] | – | 37.05% | 36.74%
15 | COc1ccc(NC(=O)c2ccc(COc3ccccc3Br)o2)c(OC)c1 [Compound 188] | 0% | 0% | 7.6%
16 | COc1ccccc1NC(=O)c1ccc(COc2ccc(C(C)(C)C)cc2)o1 [Compound 189] | 0% | 0% | 48.99%
17 | O=C(Nc1ccc(I)cc1)c1ccc(COc2ccccc2Br)o1 [Compound 190] | 0% | 0% | 5.12%
18 | O=C(Nc1cccc([N+](=O)[O-])c1)c1ccc(COc2ccc(I)cc2)o1 [Compound 191] | 0% | 0% | 8.06%
